Measurements published in US20080261902A1, “Pharmaceutical composition containing polydatin and its application” (Shenzhen Neptunus Pharmaceutical Co., Ltd., priority 2005, published 2008).
In brackets after ≈: the same amount, converted by molar mass.

How the values were obtained:
[1] = tested on: dogs in hemorrhagic shock; test: Treatment effect of polydatin drug compositions to dogs in hemorrhagic shock (Embodiment 20); assay type: in vivo, Beagle dogs; conditions: for survival rate: 168 hours
[2] = Effect of pH to solubility of polydatin (Embodiment 12); assay type: physicochemical; conditions: for solubility at 8 h: deionized water of adjusted pH, thermodynamic from solid, water, room temperature
Method: • 1. Materials: Deionized water, […] industry city; sodium hydroxide, Dongguan dongjiang chemical reagent co., ltd.; hydrochloric acid, Dongguan dongjiang chemical reagent co., ltd. • 2. Method: Regulating deionized water into pH of 5.0˜12.0 with 0.2N sodium hydroxide and 0.2N hydrochloric acid. Measuring precisely 20 ml each of above solutions, adding polydatin of proper amount respectively, treating with ultrasonic for 20 min under 40° C., supersaturating the solution, placing for 8 h under room temperature, filtering with 0.45 μm microporous membrane, wherein the filtrates are saturated solutions of polydatin in water solutions of different pHs. Adopting HPLC method to determine content of polydatin in the filtrates and calculate solubility of polydatin referring to document 20 (Wuye etc., determination content of resveratrol glycoside and tangerine peel glycoside in qing dan capsule with HPLC method, Chinese traditional patent medicine, 1999, 21(5): 226). • 3.

[3] = tested on: SD rats, shock related to blood loss; test: Treatment action for shock related to blood loss (Embodiment A7)
blood platelet = conditions: 6˜100 μmol/L; cited from earlier work
[4] = tested on: shock caused by bleeding in rats; conditions: versus equal dose of comparators; cited from earlier work
[5] = Solubility of polydatin in alcohol-water solution and normal saline (Embodiment 13); assay type: physicochemical; conditions: room temperature; for solubility at 8 h: thermodynamic from solid
Method: • 1. Materials: Anhydrous alcohol, analytically pure, Guangzhou No.2 chemical reagent factory; purified water, […] industry city; 0.9% sodium chloride injection, batch number C040514-092, Sichuan kelun pharmaceutical co., ltd. • 2. Method: Preparing alcohol water solutions having concentration of 15%, […] 30%, 40%, 50%, 60%, 70%, 80%, 90%, 95%(v/v) with anhydrous alcohol and purified water. Precisely Measuring water, anhydrous alcohol, 0.9% sodium chloride injection (normal saline) and 20 ml alcohol water solution of each above concentration, adding polydatin of proper amount respectively, treating with ultrasonic for 20 min under 40 □, supersaturating the solution, placing for 8 h under room temperature, filtering with 0.45 μm microporous membrane, wherein the filtrates are saturated solutions of polydatin in alcohol water solutions of different concentration. Adopting HPLC method to determine content of polydatin in the filtrates and calculate solubility of polydatin referring to document 20. • 3. Result: […]

[6] = Polydatin solutions prepared by conventional methods (high pH, heating, tween 80); assay type: physicochemical
Excerpt: It is widely known by technicians in the field that clinic solutions require pH4.0˜9.0. Obviously, it is hard to prepare polydatin water solution of effective concentration by adjusting pH only. Furthermore, the polydatin has bad stability in solutions of high pH, so the clinic application of the polydatin drug composition preparations of high pH will be further limited. The described document No. 19 adopts heating to dissolve to obtain polydatin drug compositions. According to the experiment, the solutions obtained by heating to dissolve precipitate solute as the temperature reduces, and the polydatin concentrations in the solutions are lower than 0.5 mg/ml after indoor temperature balancing. Obviously, the method is not suitable in preparing officinal medicine preparations. China Patent Application 02134928.2 describes a method of preparing polydatin solutions for injection by adopting adjusting pH and/or adding surfactants (tween 80). […] Furthermore, the prior documents indicate that preparations of administration in vein should be avoided to use as possible because tween surfactants have potential hemolytic and antihypertensive activity. (Zhuangyue etc., applied drug preparation technique, People's medical publishing house 1999:p417)

[7] = Solubility of polydatin in alcohol-propanediol-water mixed solvent (Embodiment 15); assay type: physicochemical; conditions: for solubility at 8 h: aqueous with cosolvent or surfactant or cyclodextrin, thermodynamic from solid
Excerpt: 1. Materials: Anhydrous alcohol, analytically pure, Guangzhou No. 2 chemical reagent factory; 1,2-propanediol, analytically pure, Guangzhou No. 2 chemical reagent factory; purified water, […] industry city. 2. Method: Precisely measuring alcohol water solution of 45%, 60%, 75%(v/v), precisely adding propanediol at volume proportions of 10:1, 10:2, 10:2.5, 10:3, 10:4, preparing mixed solvents. The mixed solvents obtained contain propanediol of about 10%˜30%(v/v), alcohol of about 32%˜68%(v/v). Precisely measuring 20 ml of each above mixed solvent, adding polydatin of proper amount respectively, treating with ultrasonic for 20 min under 40° C., supersaturating the solution, placing for 8 h under room temperature, filtering with 0.45 μm microporous membrane, wherein the filtrates are saturated solutions of polydatin in different mixed solutions. Adopting HPLC method to determine content of polydatin in the filtrates and calculate solubility of polydatin referring to document 20.

SMILES: OCC1OC(Oc2cc(O)cc(/C=C/c3ccc(O)cc3)c2)C(O)C(O)C1O [polydatin, 3,4′,5-trihydroxy-trans stilbene-3-β-D-glucoside]
- survival rate ([1]; 1.8 mg/kg): 3 number/5
- survival rate ([1]; 3.0 mg/kg): 4 number/5
- survival rate ([1]; 5.0 mg/kg): 4 number/5
- average arterial pressure (FIG. 1) ([1]; high dose 5.0 mg/kg, compared with blank control and dopamine groups): can maintain blood pressure of dogs after acute hemorrhage
- pH of the solution needed to obtain polydatin water solution ([2]; concentration above 3 mg/ml): above 12
- solubility at 8 h ([2]; pH 5, aqueous buffer, pH of solvent 5.0): < 0.5 mg/mL
- solubility at 8 h ([2]; pH 6, aqueous buffer, pH of solvent 6.0): < 0.5 mg/mL
- solubility at 8 h ([2]; pH 7, aqueous buffer, pH of solvent 7.0): < 0.5 mg/mL
- solubility at 8 h ([2]; pH 8, aqueous buffer, pH of solvent 8.0): < 0.5 mg/mL
- solubility at 8 h ([2]; pH 9, aqueous buffer, pH of solvent 9.0): < 0.5 mg/mL
- solubility at 8 h ([2]; pH 10, aqueous buffer, pH of solvent 10.0): < 0.5 mg/mL
- solubility at 8 h ([2]; pH 11, aqueous buffer, pH of solvent 11.0): 0.7 mg/mL (≈ 1.79 mM)
- solubility at 8 h ([2]; pH 12, aqueous buffer, pH of solvent 12.0): ~5 mg/mL (≈ 12.8 mM)
- pH of final solution ([2]; pH of solvent 12): about 10
- pH of the final solution ([2]; polydatin water solution of concentration above 3 mg/ml): above 10
- fraction of the treatment group with survival period of 24 hours ([3]; 2.4 mg/kg through femoral vein): 9/10
- fraction of the treatment group with survival period of 48 hours ([3]; 2.4 mg/kg through femoral vein): 8/10
- fraction of the treatment group with survival period of 72 hours ([3]; 2.4 mg/kg through femoral vein): 6/10
- ratio of the survival time of the treatment group and the control group ([3]; 2.4 mg/kg through femoral vein, 1 hour after shock): > 5.5
- arterial pressure ([3]; after 30 minutes of medication, 2.4 mg/kg, 5.3+0.2 kPa after shock for 1 hour): 8.6+0.8 kPa
- increase of diameter of micro blood vessel ([3]; after medication, 2.4 mg/kg, diameter reduced to 63.3% by shock): 20.3%
- production of the platelet accumulation and B2 thrombus induced by AA and ADP (blood platelet): capable of inhibiting
- treatment effect to shock caused by bleeding [4]: better than that of using an equal dose of Dopamine and Anisodamine hydrobromide
- solubility at 8 h ([5]; alcohol-water solution, aqueous with cosolvent or surfactant or cyclodextrin, alcohol water solution 50%~95% (v/v)): > 20 mg/mL
- solubility at 8 h ([5]; alcohol-water solution, aqueous with cosolvent or surfactant or cyclodextrin, content of alcohol 15% (v/v) in water): ~1 mg/mL (≈ 2.56 mM)
- solubility at 8 h ([5]; alcohol-water solution, aqueous with cosolvent or surfactant or cyclodextrin, content of alcohol 30% (v/v) in water): ~6 mg/mL (≈ 15.4 mM)
- solubility at 8 h ([5]; alcohol-water solution, aqueous with cosolvent or surfactant or cyclodextrin, content of alcohol 40% (v/v) in water): 9.2 mg/mL (≈ 23.6 mM)
- solubility at 8 h ([5]; alcohol-water solution, aqueous with cosolvent or surfactant or cyclodextrin, content of alcohol 50% (v/v) in water): ~25 mg/mL (≈ 64 mM)
- solubility at 8 h ([5]; alcohol-water solution, aqueous with cosolvent or surfactant or cyclodextrin, content of alcohol 60% (v/v) in water): ~42 mg/mL (≈ 108 mM)
- solubility at 8 h ([5]; alcohol-water solution, aqueous with cosolvent or surfactant or cyclodextrin, content of alcohol 70% (v/v) in water): ~80 mg/mL (≈ 205 mM)
- solubility at 8 h ([5]; alcohol-water solution, aqueous with cosolvent or surfactant or cyclodextrin, content of alcohol 80% (v/v) in water): 76.8 mg/mL (≈ 197 mM)
- solubility at 8 h ([5]; alcohol-water solution, aqueous with cosolvent or surfactant or cyclodextrin, content of alcohol 90% (v/v) in water): ~75 mg/mL (≈ 192 mM)
- solubility at 8 h ([5]; alcohol-water solution, aqueous with cosolvent or surfactant or cyclodextrin, content of alcohol 95% (v/v) in water): 30.7 mg/mL (≈ 78.6 mM)
- solubility at 8 h ([5]; anhydrous alcohol, organic solvent or mixture, content of alcohol 100% (anhydrous alcohol)): ~20 mg/mL (≈ 51.2 mM)
- solubility ([5]; content of alcohol 70% (v/v) in water): 80.9 mg/mL (≈ 207 mM)
- solubility at 8 h ([5]; normal saline, saline or isotonic, normal saline (0.9% sodium chloride injection)): < 0.5 mg/mL
- solubility at 8 h ([5]; purified water, water, content of alcohol 0% (purified water)): < 0.5 mg/mL
- sensitivity of polydatin (solution) [6]: sensitive to temperature and light
- polydatin concentration in solutions obtained by heating to dissolve ([6]; after indoor temperature balancing): lower than 0.5 mg/ml
- stability in solutions of high pH ([6]; high pH): bad stability
- cold preservation of polydatin drug composition ([6]; tween 80 of 0.5%, pH8.5, concentration 4 mg/ml, 4° C.): can not be cold preserved
- solubility at 8 h ([7]; alcohol-propanediol-water mixed solvent, 45% alcohol water/propanediol 10/1): 27.8 mg/mL (≈ 71.2 mM)
- solubility at 8 h ([7]; alcohol-propanediol-water mixed solvent, 45% alcohol water/propanediol 10/2): 34.3 mg/mL (≈ 87.9 mM)
- solubility at 8 h ([7]; alcohol-propanediol-water mixed solvent, 45% alcohol water/propanediol 10/2.5): 39.5 mg/mL (≈ 101 mM)
- solubility at 8 h ([7]; alcohol-propanediol-water mixed solvent, 45% alcohol water/propanediol 10/3): 42.4 mg/mL (≈ 109 mM)
- solubility at 8 h ([7]; alcohol-propanediol-water mixed solvent, 45% alcohol water/propanediol 10/4): 52.2 mg/mL (≈ 134 mM)
- solubility at 8 h ([7]; alcohol-propanediol-water mixed solvent, 60% alcohol water/propanediol 10/1): 55.7 mg/mL (≈ 143 mM)
- solubility at 8 h ([7]; alcohol-propanediol-water mixed solvent, 60% alcohol water/propanediol 10/2): 66.4 mg/mL (≈ 170 mM)
- solubility at 8 h ([7]; alcohol-propanediol-water mixed solvent, 60% alcohol water/propanediol 10/2.5): ~75 mg/mL (≈ 192 mM)
- solubility at 8 h ([7]; alcohol-propanediol-water mixed solvent, 60% alcohol water/propanediol 10/3): 93.3 mg/mL (≈ 239 mM)
- solubility at 8 h ([7]; alcohol-propanediol-water mixed solvent, 60% alcohol water/propanediol 10/4): 95.2 mg/mL (≈ 244 mM)
- solubility at 8 h ([7]; alcohol-propanediol-water mixed solvent, 75% alcohol water/propanediol 10/1): 81.5 mg/mL (≈ 209 mM)
- solubility at 8 h ([7]; alcohol-propanediol-water mixed solvent, 75% alcohol water/propanediol 10/2): 89.8 mg/mL (≈ 230 mM)
- solubility at 8 h ([7]; alcohol-propanediol-water mixed solvent, 75% alcohol water/propanediol 10/2.5): 92.9 mg/mL (≈ 238 mM)
- solubility at 8 h ([7]; alcohol-propanediol-water mixed solvent, 75% alcohol water/propanediol 10/3): 98.4 mg/mL (≈ 252 mM)
- solubility at 8 h ([7]; alcohol-propanediol-water mixed solvent, 75% alcohol water/propanediol 10/4): 116 mg/mL (≈ 297 mM)
- solubility at 8 h ([7]; alcohol-water solution without propanediol, 45% alcohol water, no propanediol (10/—)): 20.2 mg/mL (≈ 51.7 mM)
- solubility at 8 h ([7]; alcohol-water solution without propanediol, 60% alcohol water, no propanediol (10/—)): 42.5 mg/mL (≈ 109 mM)
- solubility at 8 h ([7]; alcohol-water solution without propanediol, 75% alcohol water, no propanediol (10/—)): 75.1 mg/mL (≈ 192 mM)
- concentration of polydatin ([7]; mixed solvent of 60% alcohol-water and propanediol 10:2.0~10:4.0): higher than 60 mg/ml
